Biological target: Factor D (Homo sapiens, UniProt P00746)
Assay: Factor D esterolytic assay (Z-Lys-SBzl thioester substrate, DTNB, 405 nm)
Type: biochemical
Conditions: substrate Z-Lys-SBzl 1.29 mM, 100 mM HEPES, 500 mM NaCl, pH 7.5, 10% DMSO, tested a minimum of three times
Method in brief: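 Run in pH 7.5 HEPES (100 mM) with 500 mM NaCl and 10% DMSO, with compound preincubated at room temperature or not before adding 1.29 mM Z-Lys-SBzl. Free thiol released by Factor D reacts with DTNB, and rate is followed at 405 nm minus 690 nm over 600 s. IC50 derives from rate-based inhibition, minimum three replicates.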

Factor D, sequence (P00746 26-253): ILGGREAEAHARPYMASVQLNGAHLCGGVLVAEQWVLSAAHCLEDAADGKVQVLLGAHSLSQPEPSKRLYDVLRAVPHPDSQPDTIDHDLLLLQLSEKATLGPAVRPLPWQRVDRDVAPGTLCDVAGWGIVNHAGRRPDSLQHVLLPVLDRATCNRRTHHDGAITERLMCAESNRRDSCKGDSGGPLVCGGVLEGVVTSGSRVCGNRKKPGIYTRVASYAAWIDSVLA

Row | IC50 | Compound
1 | < 100 nM | Cc1ccc(Br)nc1NC(=O)[C@@H]1C[C@H]2C[C@H]2N1C(=O)Cn1c2ccc(C(F)(F)F)cc2c2c(N)ncnc21 [Compound 15a, (1R,3S,5R)-2-(2-(4-amino-6-(trifluoromethyl)-9H-pyrimido[4,5-b]indol-9-yl)acetyl)-N-(6-bromo-3-methylpyridin-2-yl)-2-azabicyclo[3.1.0]hexane-3-carboxamide]
2 | < 100 nM | COc1cc2c3c(N)ncnc3n(CC(=O)N3[C@H](C(=O)Nc4cccc(Br)n4)C[C@@]4(C)C[C@@H]34)c2cc1F [Compound 331a, (1R,3S,5R)-2-(2-(4-amino-7-fluoro-6-methoxy-9H-pyrimido[4,5-b]indol-9-yl)acetyl)-N-(6-bromopyridin-2-yl)-5-methyl-2-azabicyclo[3.1.0]hexane-3-carboxamide]
3 | < 100 nM | Nc1ncnc2c1c1ccccc1n2CC(=O)N1C[C@H](F)C[C@H]1C(=O)Nc1cccc(Br)n1 [Compound 19a, (2S,4R)-1-(2-(4-amino-9H-pyrimido[4,5-b]indol-9-yl)acetyl)-N-(6-bromopyridin-2-yl)-4-fluoropyrrolidine-2-carboxamide]
4 | 100 to 1000 nM | Nc1ncnc2c1c1cc(C(F)(F)F)ccc1n2CC(=O)N1C[C@H](N)C[C@H]1C(=O)Nc1cccc(Br)n1 [Compound 201e, (2S,4R)-4-amino-1-(2-(4-amino-6-(trifluoromethyl)-9H-pyrimido[4,5-b]indol-9-yl)acetyl)-N-(6-bromopyridin-2-yl)pyrrolidine-2-carboxamide]
5 | 100 to 1000 nM | Nc1c(CO)cnc2c1ccn2CC(=O)N1[C@@H]2C[C@@H]2C[C@H]1C(=O)Nc1cccc(Br)n1 [Compound 157a, (1R,3S,5R)-2-(2-(4-amino-5-(hydroxymethyl)-1H-pyrrolo[2,3-b]pyridin-1-yl)acetyl)-N-(6-bromopyridin-2-yl)-2-azabicyclo[3.1.0]hexane-3-carboxamide]
6 | 100 to 1000 nM | Nc1ncnc2c1c1cc(C(F)(F)F)ccc1n2CC(=O)N1[C@@H]2C[C@@H]2C[C@H]1C(=O)Nc1ccccn1 [Compound 272c, (1R,3S,5R)-2-(2-(4-amino-6-(trifluoromethyl)-9H-pyrimido[4,5-b]indol-9-yl)acetyl)-N-(pyridin-2-yl)-2-azabicyclo[3.1.0]hexane-3-carboxamide]
7 | < 100 nM | COc1cc2c(cc1C)c1c(N)ncnc1n2CC(=O)N1[C@@H]2C[C@@H]2C[C@H]1C(=O)Nc1cccc(Br)n1 [Compound 328f, (1R,3S,5R)-2-(2-(4-amino-7-methoxy-6-methyl-9H-pyrimido[4,5-b]indol-9-yl)acetyl)-N-(6-bromopyridin-2-yl)-2-azabicyclo[3.1.0]hexane-3-carboxamide]
8 | > 1000 nM | Nc1ncnc2ccc(CC(=O)N3C[C@H](F)C[C@H]3C(=O)NCc3cccc(Cl)c3F)cc12 [Compound 294c, (2S,4R)-1-(2-(4-aminoquinazolin-6-yl)acetyl)-N-(3-chloro-2-fluorobenzyl)-4-fluoropyrrolidine-2-carboxamide]
9 | 100 to 1000 nM | N#C[C@@H]1C[C@@H](C(=O)Nc2cccc(Br)n2)N(C(=O)Cn2c3ccc(C(F)(F)F)cc3c3c(N)ncnc32)C1 [Compound 178d, (2S,4R)-1-(2-(4-amino-6-(trifluoromethyl)-9H-pyrimido[4,5-b]indol-9-yl)acetyl)-N-(6-bromopyridin-2-yl)-4-cyanopyrrolidine-2-carboxamide]
10 | 100 to 1000 nM | Nc1ncnc2c1c1nc(-c3cccnc3)ccc1n2CC(=O)N1[C@@H]2C[C@@H]2C[C@H]1C(=O)Nc1cccc(Br)n1 [Compound 371c, (1R,3S,5R)-2-(2-(4-amino-6-(pyridin-3-yl)-9H-pyrido[2′,3′:4,5]pyrrolo[2,3-d]pyrimidin-9-yl)acetyl)-N-(6-bromopyridin-2-yl)-2-azabicyclo[3.1.0]hexane-3-carboxamide]
11 | < 100 nM | C[C@@]12C[C@@H](C(=O)Nc3cccc(Br)n3)N(C(=O)Cn3c4ncnc(N)c4c4cccc(C(=O)O)c43)[C@@H]1C2 [Compound 232a, 4-amino-9-(2-((1R,3S,5R)-3-((6-bromopyridin-2-yl)carbamoyl)-5-methyl-2-azabicyclo[3.1.0]hexan-2-yl)-2-oxoethyl)-9H-pyrimido[4,5-b]indole-8-carboxylic acid]
12 | < 100 nM | NC(=O)c1ccc2c(c1)c1c(N)ncnc1n2CC(=O)N1[C@@H]2C[C@@H]2C[C@H]1C(=O)Nc1cccc(Br)n1 [Compound 60c, 4-amino-9-(2-((1R,3S,5R)-3-((6-bromopyridin-2-yl)carbamoyl)-2-azabicyclo[3.1.0]hexan-2-yl)-2-oxoethyl)-9H-pyrimido[4,5-b]indole-6-carboxamide]
13 | < 100 nM | Cc1cc(C(F)(F)F)cc2c3c(N)ncnc3n(CC(=O)N3[C@@H]4C[C@@H]4C[C@H]3C(=O)Nc3cccc(Cl)n3)c12 [Compound 291a, (1R,3S,5R)-2-(2-(4-amino-8-methyl-6-(trifluoromethyl)-9H-pyrimido[4,5-b]indol-9-yl)acetyl)-N-(6-chloropyridin-2-yl)-2-azabicyclo[3.1.0]hexane-3-carboxamide]
14 | < 100 nM | Cc1ncc(-c2cc(C)c3c(c2)c2c(N)ncnc2n3CC(=O)N2C[C@H](F)C[C@H]2C(=O)Nc2cccc(Br)n2)cn1 [Compound 312a, (2S,4R)-1-(2-(4-amino-8-methyl-6-(2-methylpyrimidin-5-yl)-9H-pyrimido[4,5-b]indol-9-yl)acetyl)-N-(6-bromopyridin-2-yl)-4-fluoropyrrolidine-2-carboxamide]
15 | < 100 nM | Cc1ncc(NC(=O)[C@@H]2C[C@@]3(C)C[C@H]3N2C(=O)Cn2c3ncnc(N)c3c3cc(C(F)(F)F)cc(C)c32)nc1Br [Compound 364d, (1R,3S,5R)-2-(2-(4-amino-8-methyl-6-(trifluoromethyl)-9H-pyrimido[4,5-b]indol-9-yl)acetyl)-N-(6-bromo-5-methylpyrazin-2-yl)-5-methyl-2-azabicyclo[3.1.0]hexane-3-carboxamide]
16 | < 100 nM | Nc1ncnc2c1ccn2CC(=O)N1[C@@H]2C[C@@H]2C[C@H]1C(=O)NCc1cccc(Cl)c1F [Compound 81a, (1R,3S,5R)-2-(2-(4-amino-7H-pyrrolo[2,3-d]pyrimidin-7-yl)acetyl)-N-(3-chloro-2-fluorobenzyl)-2-azabicyclo[3.1.0]hexane-3-carboxamide]
17 | 100 to 1000 nM | Nc1ncc2ncn(CC(=O)N3[C@@H]4C[C@@H]4C[C@H]3C(=O)Nc3cccc(Br)n3)c2n1 [Compound 89b, (1R,3S,5R)-2-(2-(2-amino-9H-purin-9-yl)acetyl)-N-(6-bromopyridin-2-yl)-2-azabicyclo[3.1.0]hexane-3-carboxamide]
18 | > 1000 nM | Nc1ncnc2c1cnn2CC(=O)N1CCC[C@H]1C(=O)Nc1cccc(Br)n1 [Compound 77b, (S)-1-(2-(4-amino-1H-pyrazolo[3,4-d]pyrimidin-1-yl)acetyl)-N-(6-bromopyridin-2-yl)pyrrolidine-2-carboxamide]
19 | < 100 nM | C[C@@]12C[C@@H](C(=O)Nc3cccc(Br)n3)N(C(=O)Cn3c4ccc(C5CCCC5)cc4c4c(N)ncnc43)[C@@H]1C2 [Compound 338e, (1R,3S,5R)-2-(2-(4-amino-6-cyclopentyl-9H-pyrimido[4,5-b]indol-9-yl)acetyl)-N-(6-bromopyridin-2-yl)-5-methyl-2-azabicyclo[3.1.0]hexane-3-carboxamide]
20 | < 100 nM | Cc1cc(C(F)(F)F)cc2c3c(N)ncnc3n(CC(=O)N3CCS[C@H]3C(=O)Nc3cccc(Br)n3)c12 [Compound 324a, (S)-3-(2-(4-amino-8-methyl-6-(trifluoromethyl)-9H-pyrimido[4,5-b]indol-9-yl)acetyl)-N-(6-bromopyridin-2-yl)thiazolidine-2-carboxamide]

Source: patent publication US12679843B2, “Pyrrolopyrimidine amines as complement inhibitors” (BioCryst Pharmaceuticals, Inc., priority 2020, dated 2026)
